Measurements published in patent publication US20220089679A1, “FUSION PROTEIN WITH IMMUNOSUPPRESSIVE ACTIVITY” (FUNDACIÓ INSTITUT D'INVESTIGACIÓ BIOMÈDICA DE BELL, priority 2019, published 2022).

Tests used:
NZB/W F1 hybrid mice = assay: Murine lupus nephritis; format: in vivo; conditions: for mortality / survival: up to the end of experiments at 32 weeks, Hybri 20 mg/kg ip days 0, 4, 14, 28, 56, 84, CYP 50 mg/kg ip every 10 days, versus PBS
Source text: NZB/W F1 hybrid mice spontaneously develop a disease closely resembling human systemic lupus erythematous (SLE) with severe renal involvement, which is the main cause of animal mortality. In fact, this model, with a well-characterized evolution of renal disease, has been widely used to study the therapeutic potential of several new agents for SLE, as previously reported (Ripoll et al., “CD40 gene silencing reduces the progression of experimental lupus nephritis modulating local milieu and systemic mechanisms”, PLoS One, 2013, vol. 8(6)).
From 20 weeks of age, and close to a potential therapeutic schedule in humans, mice (n=9) received Hybri intraperitoneally (ip) at 20 mg/kg on days 0, 4, 14, 28, 56 and 84; or CYP (n=8) ip. at 50 mg/kg every 10 days; or 200 μl PBS ip. twice a week (n=8).

[1] = system: Wistar rats with 40 minutes of bilateral renal ischemia
Experimental: Rats were sham operated or suffered from renal warm ischemia and were treated with the fusion protein of the invention of sequence SEQ ID NO: 6 (Hybri) at 20 mg/kg ip. 24 hours before renal ischemia; and in the control ischemic group rats received PBS.

[2] = system: Lewis rats transplanted with a single kidney from a Wistar donor rat; assay: Rat renal allotransplantation (life-sustaining renal transplantation model); format: in vivo; conditions: 500 μg intraperitoneally 2 hours before transplantation, then daily for 6 days, followed for 3 weeks, versus non-treated group, p<0.05
Source text: A model of life-sustaining renal transplantation previously described (De Ramon et al., “CD154-CD40 T-cell co-stimulation pathway is a key mechanism in kidney ischemia-reperfusion injury”, Kidney Int., 2015, vol. 88(3), pp. 538-49) was used to test the therapeutic effects of the fusion protein. It is known that in experimental renal transplantation with highly alloreactive donor-recipient combination, severe acute rejection results in high recipients' mortality.
Briefly, Lewis rats were bi-nephrectomized and subsequently transplanted with a single kidney from a Wistar donor rat. […] In the control group, recipient Lewis rats received no treatment. Transplanted rats were followed for 3 weeks.

[3] = system: CD3+ T cell proliferation; assay: Mixed lymphocyte reaction (MLR) in vitro proliferation assay; format: cell-based, human; conditions: for decrease of CD3+ cells proliferation: 6 days, as compared to spontaneous proliferation without immunosuppressive agents (MLR), two responder subjects
Experimental: Mixed Lymphocyte reactions (MLR) were performed in the presence or absence of different immunosuppressive drugs to test their inhibitory effect on T cell proliferation, following conventional methodology (Levitsky J, et al., “Allospecific regulatory effects of sirolimus and tacrolimus in the human mixed lymphocyte reaction”, Transplantation, 2011, vol. 91(2), pp. 199-206).
Briefly, peripheral blood mononuclear cells (PBMC) from healthy controls were used as responder cells. CD3^+-depleted splenocytes extracted from deceased donors and mature dendritic cells (DCs) were extracted with CD2 positive selection cocktail (Stem Cell Technologies, France) following manufacturer's instructions and they were used as stimulators in the assay. PBMC from peripheral blood samples and splenocytes were isolated by standard Ficoll density gradient centrifugation (Bargalló M E. et al., “Utility of Systematic Isolation of immune cell subsets from HIV-infected individuals for miRNA profiling”, J Immunol Methods, 2017, vol. 442, pp. 12-19). In order to obtain mature DCs, monocytes were isolated from PBMC by negative selection with Human monocyte enrichment kit (Stem Cell Technologies, France) following manufacturer's instructions, cultured for 6 days with complete Ex-vivo medium supplemented with 2% of human serum (Sigma Aldrich), GMSF (15 ng/ml; R&D) and IL-4 (10 ng/ml; Sigma Aldrich) (37° C. 5% CO2), and stimulated with LPS (1 μg/ml; Sigma Aldrich) for 24 h.
First, PBMC were stained with carboxyfluorescein succinimidyl ester (CFSE) (Lloberas N, et al., “Dendritic cells phenotype fitting under hypoxia or lipopolysaccharide; adenosine 5′-triphosphate-binding cassette transporters far beyond an efflux pump”, Clin Exp Immunol., 2013, vol. 172(3), pp. 444-54). […] At day 6, cells were harvested and stained for CD3-APC and CD4-PE (BD Bioscience, San Jose, Calif., USA) 20 minutes in the dark following manufacturer's instructions, and T-cell proliferation were analyzed by flow cytometry (BD FACS CANTO 11, San Jose, Calif., USA) using Facs Diva software and following manufacturer's instructions.
The in vitro proliferation assay was performed with high HLA-mismatch combination between 2 stimulator DCs and two corresponding responder subjects ([…], S2) T cells.

Row | Compound | albuminuria (albuminuria/creatininuria ratio) (NZB/W F1 hybrid mice; at 3 months of therapy) | mortality / survival (NZB/W F1 hybrid mice) | preservation of renal structure ([1]; 20 mg/kg ip. 24 hours before renal ischemia) | renal function (serum creatinine levels) ([1]; 20 mg/kg ip. 24 hours before renal ischemia, 24 hours after warm ischemia, versus PBS, p=0.0038) | T cells with regulatory phenotype (Tregs) per high power field in renal parenchyma ([1]; compared to non-treated ischemic kidneys) | renal failure in sham operated rats ([1]; rat, in vivo) | anti-DNA antibodies in serum (NZB/W F1 hybrid mice; FIG. 8B) | albuminuria (albuminuria/creatininuria ratio) (NZB/W F1 hybrid mice; mouse, in vivo) | mortality / survival (NZB/W F1 hybrid mice; listed as fusion polypeptide) | survival [2] | survival ([2]; listed as fusion polypeptide) | inhibition of mature CD3+ T cell proliferation (in words) ([3]; 10 μg/mL and 20 μg/mL, compared with tacrolimus (10 nM), FIG. 5) | decrease of CD3+ cells proliferation ([3]; 10 μg/mL) | decrease of CD3+ cells proliferation ([3]; 20 μg/mL) | reduction in T cell proliferation (immunosuppressive effect, FIG. 5) ([3]; summary statement of FIG. 5)
1 | O=P1(N(CCCl)CCCl)NCCCO1 (stereo not shown) [CYP, cyclophosphamide, reference compound] | reducing albuminuria | no mortality |  |  |  |  |  |  |  |  |  |  |  |  | 
2 | Hybri: fusion protein of human PDL2 extracellular domain, (GGGGS)3 linker, human CTLA4 extracellular domain, Fc of human IgG, poly-histidine tag; SEQ ID NO: 6 |  | no mortality | better preservation of renal structure | significantly improved renal function | increased | did not develop renal failure | effectively reduced anti-DNA antibodies to similar levels than CYP | as efficient as CYP in reducing albuminuria | strongly improved the survival | significantly higher survival | strongly improved the survival | strongly inhibit | 97%-99% | 94%-99% | nearly complete
